The values below come from patent US8507460B2, “Substituted 3′,5′-cyclic phosphates of purine nucleotide compounds and pharmaceutical compositions for the treatment of viral infections” (priority 2011, dated 2013).

What is called EC50 is the concentration needed to bring the measured effect to its halfway point. As a reminder, the CC50 is the concentration that lowers cell viability or growth by half.

One data set relates to HCV genotype 1b replicon. In words: HCV Replicon Assay (Zluc luciferase reporter). In kind it is cell-based. As for the experimental part: Huh-7-derived cell line (Zluc) that harbors an HCV genotype 1b replicon and a luciferase reporter gene was grown in Dulbecco's Modified Eagle Medium (DMEM) supplemented with 10% fetal bovine serum, 2 mM GlutaMAX, 1% MEM nonessential amino acids, 100 IU/mL penicillin, 100 μg/mL streptomycin, and 0.5 mg/mL Geneticin® (G418). For dose response testing the cells were seeded in 96-well plates at 7.5×10^3 cells per well in a volume of […], and incubated at 37° C./5% CO2. Drug solutions were made up freshly in Huh-7 media as 2× stocks. […] 5-fold dilutions were prepared from these stocks in DMEM without G418. At least three hours after Zluc cells were seeded, drug treatment was initiated by adding 50 μL of drug dilutions to the plates in duplicate. Final concentrations of drug ranged from 100 μM to 0.0000512 μM. Cells were then incubated at 37° C./5% CO2. Alternatively, compounds were tested at two concentrations (1 μM and 10 μM). […] After 72 hours of incubation, the inhibition of HCV replication was measured by quantification of photons emitted after mono-oxygenation of 5′-fluoroluciferin to oxyfluoroluciferin by firefly luciferase. For this, media was removed from the plates via gentle tapping. Fifty microliters of ONE-glo luciferase assay reagent was added to each well. The plates were shaken gently for 3 min at room temperature and luminescence was measured on a Victor^3 V 1420 multilabel counter (Perkin Elmer) with a 1 second read time using a 700 nm cut-off filter. The EC50 values were calculated from dose response curves from the resulting best-fit equations determined by Microsoft Excel and XLfit 4.1 software. When screening at two fixed concentrations, the results were expressed as % inhibition at 1 μM and 10 μM.
For orientation: In antiviral work, replicon cells carry a viral genome segment that copies itself.

A short description of data set [1]: Cytotoxicity evaluation, CellTiter-Blue Cell Viability Assay. In kind it is cell-based. Particulars: human, Zluc cells, read-out: HCV Replicon CC50. As for the experimental part:
For cytotoxicity evaluation, Zluc cells were treated with compound as described above, and cell viability was monitored using the CellTiter-Blue Cell Viability Assay (Promega) by adding 20 μL of the assay solution to each well. The plates were then incubated at 37° C./5% CO2 for at least 3 hours.

Data set [2] is described as follows: Stability in simulated gastric and intestinal fluids. The format is in vitro ADME. Particulars: 100 μM, 2 hours at 37° C., percent of peak area at time zero. As for the experimental part:
Simulated gastric and intestinal fluids containing pepsin and pancreatin respectively were prepared according to the U.S. Pharmacopoeia USP291 procedure (www.pharmacopeia.cn/v29240/usp29nf24s0_ris1s126.html). Test compound (final concentration 100 μM) was incubated in duplicate in the appropriate fluid for 2 hours at 37° C. The samples were quenched with 200 μl cold acetonitrile, vortexed for 30 seconds and then centrifuged at 16,100 g for 10 min. The supernatants were analyzed by HPLC on a C-18 column with UV detection at 252 nm. The time 0 samples were prepared by adding SGF or SIF fluid to the quenching solvent followed by the test compound. Stability of the compound was determined by peak area the test compound after incubation and calculated as percent of the peak area observed at time zero.

Data set [3] is described as follows: Stability in fresh human whole blood. In kind it is in vitro ADME. Particulars: 0.5 μM, percent unchanged. As for the experimental part:
Stability of test compounds were determined in fresh human whole blood with K2EDTA as the anticoagulant (stored refrigerated at 2-8° C. and used within 7 days of receipt). The experiment was conducted with three replicates for each time point. Whole blood, pre-incubated at 37° C. for 10-15 minutes, was fortified with a solution of test compound for a final concentration of 0.5 μM and mixed for 30 sec. At intervals (0, 0.5, 1 and 2 hr), three […] aliquots were combined with 200 μL (each) of an ice-cold solution of the internal standard (carbutamide 500 ng/mL in acetonitrile). The samples were vortexed for 30 sec and then centrifuged at 16,100 g for 5 min. The supernatant was analyzed by LC-MS/MS. The MS peak area ratio of the test compound versus the internal standard was calculated and percent unchanged test compound was calculated for each time point using this ratio.

A short description of data set [4]: Stability in liver and intestinal subcellular fractions (microsomes and S9). In kind it is in vitro ADME, human. The conditions noted are these: 10 μM, NADPH, 60 min, percent unchanged. As for the experimental part:
Stability of test compounds were determined in subcellular fractions (microsomes and S9) of human liver and intestine in duplicate for each matrix. Pooled liver and intestinal microsomal, intestinal and liver S9 proteins (1.0 mg/mL), suspended in incubation buffer (100 mM potassium phosphate, pH […], and 0.1 mM EDTA), were preincubated for 5 min at 37° C. with 10 μM of a test compound from a 10 mM stock solution in DMSO (final DMSO concentration was 0.1%); the reaction was initiated by the addition of NADPH (3 mM final concentration). At specific times (0 and 60 min), 0.1 mL samples were taken and the reaction terminated by the addition of 4 volumes of stop solution (acetonitrile with 500 ng/mL carbutamide as an internal standard). The samples were vortexed for 30 sec and then centrifuged at 16,000 g for 10 min. 100 μL of supernatants were transferred to 96 deep-well plates preloaded with 100 μL distilled water and analyzed after mixing by LC-MS/MS. The MS peak area ratio of the test compound versus the internal standard was calculated and percent unchanged test compound over 60 minutes was calculated using this ratio.

`CCOc1nc(N)nc2c1ncn2[C@@H]1O[C@@H]2COP(=O)(OC(C)C)O[C@H]2[C@@]1(C)O` (single isomer, unassigned) [Compound 1a]: the selectivity index entry in the data set with HCV genotype 1b replicon (HCV replicon assay, Zluc cells) was “greater than 100”. Also, the EC50 with HCV genotype 1b replicon (Zluc cells (Huh-7-derived, HCV genotype 1b replicon, luciferase reporter), 72 hours) was at most 250 nM. Moreover, in data set [1], the CC50 at 72 h was over 50 µM. Further, in data set [2] (simulated gastric fluid with pepsin), the “Stability SGF” value is listed as 99%. Besides, the “Stability SIF” value in data set [2] (simulated intestinal fluid with pancreatin) is listed as 99%. In data set [3], the “Stability WB_Human (37° C.; 2 hr)” value came out at 101%. In data set [4] (HIS9 1.0 mg/mL), the “Stability HIS9 (1 hr)” value turned out to be 106%. The “Stability HIM (1 hr)” value in data set [4] (human intestinal microsome 1.0 mg/mL) is 107%. For the same compound, in data set [4] (human liver S9 fraction 1.0 mg/mL), the “Stability HLS9 (1 hr)” value amounted to 111%. The “Stability HLM (1 hr)” value in data set [4] (human liver microsome 1.0 mg/mL) came out at 100%.
